{"source": "patent US20060205642A1", "about": "“Oral methods of treatment using proANF peptides” (priority 2005, published 2006)", "key": {"[1]": {"system": "particulate guanylate cyclase", "experiment": "Cyclic GMP / particulate guanylate cyclase activation in cultured smooth muscle cells and porcine aorta", "format": "cell-based"}, "[2]": {"system": "porcine aortas", "experiment": "Vasodilation of porcine aortic strips preconstricted with 0.3 micromolar phenylephrine", "experimental": "30 Kg pigs are sacrificed, and aortic strips are harvested. The strips are attached to F-60 transducer (Narco-BioSystems, Houston, Tex.) and attached to a physiography (Narco-BioSystems) while being submerged in a muscle tissue bath comprising a Krebs Ringer solution at 37° C., with 95% O2-5% CO2, bubbled through the bath. Percentage vasodilation is measured versus time after preconstriction with 0.3 micromolar phenylephrine. […] (Vesely et al., Biochem. Biophys. Res. Commun. 148:1540-1548, 1987)."}, "[3]": {"system": "prostaglandin E2 (PGE2) synthesis", "experiment": "Prostaglandin E2 synthesis (FIG. 8)", "format": "biochemical", "conditions": "n=6, ANOVA and Duncan's MRT"}, "[4]": {"experiment": "Infusion into healthy human subjects", "format": "in vivo", "conditions": "healthy humans", "experimental": "Infusion of these peptides into healthy human subjects was performed as follows: Human pro-ANF 1-30, pro-ANF 31-67, and pro-ANF 79-98, and hANF (i.e., pro-ANF 99-126, were synthesized by Peninsula Laboratories (Belmont, Calif.). High pressure liquid chromatography (HPLC) analysis was performed on a sample of each of the four peptides to ensure purity. The peptides were dissolved in a sterile 0.9% saline solution to a concentration of 100 μg/ml and dispensed in 2 and 5 ml aliquots into sealed sterile vials. At the time of dispensing, randomly selected vials were tested for pyrogens and sterility. Prior to labeling the vials, the actual peptide content of the dispensed solution were determined by direct radioimmunoassay to account for any possible absorption of the respective peptides to the walls of the vials. All vials were then stored at −80° C. until thawed for individual study.\nNormal healthy subjects were chosen on the basis of age (between 20 and 50 years), physical examination and biochemical screenings. The subjects consumed their normal diets prior to testing. The subjects fasted overnight and were tested in the morning in the seated position. Intravenous catheters were placed bilaterally for the administration of pro-hANF 1-30, pro-hANF 31-67, pro-hANF 79-98 and hANF (pro-hANF 99-126) and for blood sampling. After completion of a 45-minute equilibration period, there were three […] phases of the study: baseline, experimental infusion (60 minutes) and recovery (3 hours). The baseline phase consisted of two 30 minute urine collection periods, the experimental phase consisted of three 20 minute urine and plasma collection periods, and the recovery phase consisted of two 30 minute urine and plasma collection periods each hour for three hours post-infusion. Urine output was replaced on a milliliter per milliliter basis throughout the study by administering oral water or orange juice. Urine samples were obtained by voiding at the designated collection periods.\nThe 36 subjects were divided into 6 groups. One group (i.e., the control group) received a placebo infusion of 0.9% sodium chloride during the experimental infusion phase. […] The four remaining groups of six subjects each received human pro-hANF 1-30, pro-hANF 31-67, pro-hANF 79-98 and HANF. The four groups received the peptides by continuous infusion at the rate of 0.1 μg/kg per minute. The volume administered per hour during the experimental infusion phase was 10 ml for all four peptides and the placebo. All infusions were given by a constant-rate infusion pump, with the final concentrations of prohANFs adjusted for the subjects' body weight. The subjects heart rate and cuff blood pressure were taken at 5 minute intervals throughout the study. The excreted urine was analyzed for sodium concentration."}, "[5]": {"system": "renal medullary Na+-K+-ATPase", "experiment": "Inhibition of renal medullary Na+-K+-ATPase activity (FIG. 9)", "format": "biochemical", "conditions": "10^-11 M, n=6, ANOVA", "from_the_text": "FIG. 9. Inhibition of renal medullary Na+-K+-ATPase activity by proANF 79-98 (kaliuretic peptide), proANF 1-30 (long acting natriuretic peptide), proANF 31-67 (vessel dilator), and angiotensin II at their […] concentrations."}, "[6]": {"experiment": "Ischemic nonoliguric acute renal failure (ARF) in rats", "format": "in vivo, Sprague-Dawley rats", "experimental": "Ischemic nonologuric acute renal failure (ARF) was induced in 24 male Sprague-Dawley rats (Zivc-Miller), weighing 200-270 g with 50 min of ischemia. Seven of the ARF rats received proANF 31-67. There were 17 ARF rats in the control group. Each of these rats were handled identically with the control rats as well as the experimental group of rats receiving an osmotic pump placement two days after receiving a unilateral right nephrectomy followed by clamping left renal artery for 50 min. The only difference was that the control group received 0.9% saline only in their osmotic pumps, whereas the experimental group had proANF 31-67 dissolved in 0.9% saline within their osmotic pumps which pump for 72 hours into the peritoneal cavity. In the 17 control ARF rats their preischemic blood urea nitrogen (BUN) and creatinine levels of 16±1 and 0.56±0.05 mg/dl increased to 162±4 and 8.17±0.5 mg/dl, P<0.001, respect 4 of postischemia. ProANF 31-67 (0.3 μg·kg^−1·min^−1 intraperitoneally), decreased the BUN and creatinine levels to 53±17 mg/dl and 0.98±0.12 mg/dl (P<0.001) in seven animals where ARF had been established for two days. […] Acute tubular necrosis was <5% in the proANF 31-67-treated rats compared with 25% to >75% in the placebo-treated ARF animals."}}, "note": "Entries after “also recorded” stand apart in the source; their conditions may differ."}
{"substance": "H-EVVPPQVLSEPNEEAGAALSPLPEVPPWTGEVSPAQR-OH [proANF 31-67]", "values": [{"measurement": "cyclic GMP levels in cultured smooth muscle cells", "setting": "[1]; cultured smooth muscle cells", "result": "increase cyclic GMP levels"}, {"measurement": "concentration of maximal activation of guanylate cyclase activity", "setting": "[1]; porcine aorta and isolated smooth muscle cells", "result": "about 1 μM"}, {"measurement": "EC50", "setting": "[1]; porcine aorta and isolated smooth muscle cells, read-out: half maximal activation (ED5o) of guanylate cyclase", "result": "~0.01", "unit": "µM"}, {"measurement": "increase in cyclic GMP levels over baseline levels associated with vasodilation", "setting": "[2]", "result": "four-to-five fold"}, {"measurement": "prostaglandin E2 (PGE2) synthesis", "setting": "[3]", "result": "increase prostaglandin E2 (PGE2) synthesis"}, {"measurement": "duration of sodium excreting effects compared to ANF", "setting": "[4]", "result": "significantly (P<0.001) prolonged compared to ANF; also recorded: last significantly (P<0.001) longer than ANF's effects"}, {"measurement": "increase in urine volume (in words)", "setting": "[4]; 100 ng/kg body wt per minute for 1 hour i.v., n=6, ANOVA", "result": "significant"}, {"measurement": "sodium excretion (in words)", "setting": "[4]; 100 ng/kg body wt per minute for 60 minutes, vs baseline", "result": "significantly (P<0.05) increased"}, {"measurement": "systolic and diastolic blood pressures", "setting": "[4]; 100 ng/kg body wt per minute i.v. for 60 min, n=6", "result": "significant; also recorded: lowers blood pressure the most"}, {"measurement": "inhibition of renal medullary Na+-K+-ATPase activity", "setting": "[5]", "result": "significant at P<0.01"}, {"measurement": "creatinine level", "setting": "[6]; 0.3 μg·kg^−1·min^−1 intraperitoneally, seven animals, ARF established two days, control ARF rats 8.17±0.5 at day 4", "result": "0.98 ± 0.12", "unit": "mg/dL"}, {"measurement": "blood urea nitrogen (BUN) level", "setting": "[6]; 0.3 μg·kg^−1·min^−1 intraperitoneally, seven animals, ARF established two days, control ARF rats 162±4 at day 4", "result": "53 ± 17", "unit": "mg/dL"}, {"measurement": "acute tubular necrosis", "setting": "[6]; 25% to >75% in placebo-treated animals", "result": "< 5", "unit": "%"}, {"measurement": "mortality at day 6 of ARF", "setting": "[6]; 88% without proANF 31-67", "result": 14, "unit": "%"}, {"measurement": "left ventricular dilation (transthoracic echocardiography)", "setting": "[6]; ARF rats", "result": "reversed this dilation"}, {"measurement": "water excretion", "setting": "[6]; doubled with ARF", "result": "further augmented"}, {"measurement": "survival (Kaplan-Meir plot)", "setting": "[6]; from day 4 (P<0.01) and day 5 onward (P<0.001) vs placebo-treated ARF rats", "result": "significant advantage with respect to survival"}]}
